Laboratory results reported in US4758586A, “Indolyl compounds and hyposensitivity use thereof” (USV Pharmaceutical Corp., priority 1986, dated 1988).
Read-outs that look alike come from different tables or passages of the source. Blank lines part the entries; values can stand above or below the compound they belong to.

Columns and labels:
[1] = system: leukotriene C4 -induced contraction of guinea pig peripheral strips; assay: SRS-A antagonists (SALTI): leukotriene C4-induced contraction of guinea pig peripheral lung strips
Method: Protocol for SRS-A (Slow-reacting Substance of Anaphylaxis Antagonists (SALTI)
Peripheral strips of guinea pig lungs are prepared and hung in tissue baths (Metro #ME-5505, 10 ml) according to the published procedure (Pro. Nat'l. Acad. Sci., U.S.A. Volume 77, pp. 4354-4358, 1980). The strips are thoroughly rinsed in Assay Buffer and then connected with surgical silk thread to the support rods from the tissue baths. The rods are adjusted in the baths and the strips connected to the pressure transducers (Grass FT 103 or Gould UC-3). The tissue baths are aerated with 95% oxygen 5% carbon dioxide and maintained at 37° C. The Assay Buffer has been made as follows: For each liter of buffer the following are added to approximately 800 ml of water distilled in glass--6.87 g. NaCl, 0.4 g. KCl, […]. NaHCO3, 0.14 g. NaH2 PO4.H2 O, 0.21 g. MgSO4.7H2 O, and 2.0 g. D-glucose. Then a solution of 0.368 g. CaCl2.2H2 O in 100 ml glass-distilled water is slowly added to the buffer. Sufficient water is added to adjust the volume to one liter, and the solution is aerated with 95% oxygen--5% carbon dioxide. Usually 10 liters of buffer are used for an experiment with 4 tissues.
After the tissues have been repeatedly washed and allowed to equilibrate in the tissue bath, they are challenged with 1 μM histamine. After maximum contractions have been obtained, the tissues are washed, and allowed to relax back to baseline tension. This histamine challenge procedure is repeated at least 1 to 2 more times to obtain a repeatable control response. The average response to 1 μM histamine for each tissue is used to normalize all other challenges.
Responses of each tissue to a predetermined concentration of leukotriene are then obtained. Usually test compounds are examined initially at 30 μM on resting tension of the tissues without any added agonist or antagonist to determine if the compound has any possible intrinsic activity. The tissues are washed, and the test compound is added again. Leukotriene is added after the desired pre-incubation time. The intrinsic activity of the compounds, and their effect on leukotriene-induced contractions are then recorded.
The concentration required for 50% inhibition of 0.2 μM leukotriene C4 -induced contraction of guinea pig peripheral strips for representative compounds of the present invention is shown in Table 3.

[2] = biological target: T1, Phospholipase A2 (PLA2) (Rattus norvegicus, UniProt P14423); assay: In vitro assay for inhibitors of Phospholipase A2 (PLA2) from rat platelets; assay type: biochemical
T1 construct: obtained by aggregation of purified rat platelets; from tissue; host or cells: rat platelets (enzyme obtained by aggregation)
T1 sequence (P14423 22-146): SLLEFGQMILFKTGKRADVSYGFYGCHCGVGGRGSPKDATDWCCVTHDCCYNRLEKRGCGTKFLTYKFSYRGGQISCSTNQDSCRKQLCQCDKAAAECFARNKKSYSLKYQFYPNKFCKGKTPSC
Text: B. In Vitro Assay For Inhibitors of Phospholipase A2 Assayed at pH 7.0 (PLA2)
The PLA2 employed in this screen is obtained by aggregation of purified rat platelets. In the enzyme assay phosphatidylcholine having ^14 C-labeled palmitate residues at R1 and R2 is employed as substrate. PLA2 acts by cleaving the R2 fatty acid ester bond yielding free fatty acid and lysophosphatidyl choline as follows: [drawing 19]
Following completion of the reaction, the assay medium is acidified and extracted with hexane, which takes up unreacted substrate and free fatty acid product. The hexane extract is passed over a short silica column which retains 99% of the phosphatidyl choline. The ^14 C-labeled palmitic acid is not retained (90% recovery in eluate) and is collected directly in scintillation counting vials. The released palmitic acid is conveniently quantitated by liquid scintillation spectrometry.
The compounds were tested at 100 uM in a buffer containing 0.3 mM unlabeled phosphatidylcholine (PC), 20-30,000 cpm of ^14 C(CPC), […], 1 mM CaCl2 and 50 mM tris-HCl adjusted to pH 7.2 with 1N NaOH. […] The temperature of the buffer was maintained at a temperature of 37° C. The reaction was initiated by addition of the enzyme and it was terminated 30 minutes later by the addition of […] of 1N HCl.
Following acidification, the samples were extracted with 2 ml of 2-propanol and 2 ml of hexane, vortexed and allowed to stand until the phases separated. Free fatty acids (FFA) and some unreacted substrate were taken up in the isopropanol-saturated hexane. The hexane phase of the extraction mixture was transferred to a short silica gel column which retained […] but not the FFA. The column effluent was collected directly in scintillation vials. The columns were washed once with an additional 2 ml of hexane. The radio labeled FFA were quantitated by liquid scintillation spectrometry.

[3] = system: Phospholipase C (PLC); assay: In vitro assay for inhibitors of Phospholipase C (PLC) from rat platelets; assay type: biochemical; conditions: at level tested (300 u)
Text: A. Protocol For In Vitro Assay For Inhibitors Of Phospholipase C (PLC)
The PLC employed in this screen is obtained by aggregation of purified rat platelets in the presence of CaCl2 and ADP. In the enzyme assay phosphatidylinositol having ^3 H -labeled arachidonate residues at R2 is employed as substrate. PLC acts by cleaving the phosphate ester bond yielding diglyceride as follows: [drawing 18]
Following completion of the reaction, the assay medium is acidified and extracted with hexane which takes up unreacted substrate and diglyceride. The hexane extract is passed over a short silica gel column which retains 99% of the phosphatidylinositol. The ^3 H-labeled diglyceride is not retained […]. The diglyceride is conveniently quantitated by liquid scintillation spectrometry.
The compounds were tested at 300 u in a buffer containing 0.06 mM unlabeled phosphatidylcholine (PC), 20-30,000 cpm of (CPC), 150 mM NaCl, 5 mM CaCl2 and 50 mM tris(hydroxymethyl)methylaminopropanesulfonic acid buffer, adjusted to pH 9.0 with 1N NaOH. The temperature of the buffer was maintained at a temperature of 37° C. The reaction was initiated by addition of the enzyme and it was terminated 10 minutes later by addition of 1 ml of 1N HCl.
Following acidification, the samples were extracted with 2 ml of isopropyl alcohol and 2 ml of hexane, vortexed and allowed to stand until the phases separate. […] and some unreacted substrate were taken up in the isopropanol-saturated hexane. The hexane phase of the extraction mixture was transferred to a short silica gel column which retains unreacted phosphatidylinositol, but not the 3H-diglyceride. The column effluent was collected directly in scintillation vials. The columns were washed once with additional 2 ml of hexane. The radiolabelled diglycerides were quantitated by liquid scintillation.

[4] = biological target: T2, 5-lipoxygenase (Rattus norvegicus, UniProt P12527); assay: Protocol for detecting inhibitors of the lipoxygenase pathway (5-HETE formation in rat neutrophils); assay type: cell-based
T2 construct: A suspension of rat neutrophils in buffer; endogenous in cells; host or cells: rat neutrophils (PMN)
T2 sequence (P12527 1-673): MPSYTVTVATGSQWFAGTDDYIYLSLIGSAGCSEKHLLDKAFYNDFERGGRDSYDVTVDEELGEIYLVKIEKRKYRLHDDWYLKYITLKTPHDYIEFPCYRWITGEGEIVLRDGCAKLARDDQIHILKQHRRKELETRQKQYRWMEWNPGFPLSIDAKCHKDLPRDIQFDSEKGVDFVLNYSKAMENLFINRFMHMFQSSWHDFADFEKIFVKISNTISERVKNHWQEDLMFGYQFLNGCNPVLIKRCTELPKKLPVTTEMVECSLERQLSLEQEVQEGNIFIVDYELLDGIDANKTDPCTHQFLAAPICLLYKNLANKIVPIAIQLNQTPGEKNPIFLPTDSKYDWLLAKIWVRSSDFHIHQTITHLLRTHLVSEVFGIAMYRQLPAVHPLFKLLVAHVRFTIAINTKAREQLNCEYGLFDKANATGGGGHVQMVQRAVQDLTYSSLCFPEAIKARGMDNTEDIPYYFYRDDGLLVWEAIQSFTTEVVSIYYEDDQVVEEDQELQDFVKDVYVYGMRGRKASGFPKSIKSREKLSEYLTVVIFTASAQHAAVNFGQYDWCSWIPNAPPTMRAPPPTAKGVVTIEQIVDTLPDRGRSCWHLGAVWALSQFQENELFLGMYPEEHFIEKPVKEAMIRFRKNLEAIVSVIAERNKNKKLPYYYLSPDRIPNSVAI
Method: Protocol for Detecting Inhibitors of the Lipoxygenase Pathway
A suspension of rat neutrophils in buffer is incubated for 3 minutes at 30° C. with [^14 C]-arachidonic acid (AA) and Calcium Ionophore A23187. Citric acid (2M) is used to quench the reaction. Following the addition of a trace amount of (^3 H)-5-HETE together with an excess of unlabeled 5-HETE to each tube, the mixture is extracted with chloroform/methanol. The organic layer is washed with dilute acid and an aliquot is transferred to glass tubes and dried. The residue is dissolved in a small volume of chloroform and an aliquot is spotted on silica get TLC sheets, which are developed with an ethyl acetate/isooctane/water acetic acid solvent system. The 5-HETE spots are visualized with iodine, cut out and placed in scintillation vials for counting. After adjusting for the extraction efficiency, the amount (pmole) of [^14 C]-5-HETE in each of the tubes is quantitated. The net pmoles of 5-HETE are obtained by subtracting the pmoles of 5-HETE in the tubes containing […]. The ability of the test compounds to modulate the activity of this enzyme is determined by a decrease or increase in the net amount of 5-HETE produced.

[5] = Cavia porcellus, leukotriene-induced contraction, read-out: SALTI I50 (Table 5)
[6] = Formula III, n=1 compounds, read-out: LOX I50 (Table 5)
[7] = rat PMN, [14C]-arachidonic acid + A23187, 5-HETE, read-out: LOX, (RAT PMN) I50
[8] = read-out: PLA2, inhibition level reached at 30 μM (Ixx = 30 μM)
[9] = Cavia porcellus, 0.2 μM leukotriene C4-induced contraction, read-out: SALTI, I50 μM

Compound: Cc1c(C=CC(=O)O)c2ccccc2n1Cc1ccccc1 [B-(1-Benzyl-2-methyl-indol-3-yl)acrylic acid]
IC50 [1, 5]: 20 µM

Compound: O=C(O)C=Cc1cn(Cc2ccccc2)c2ccccc12 [B-(1-Benzylindol-3-yl)acrylic acid]
inhibition at 30 µM ([2]; read-out: PLA2, inhibition level reached at 30 μM (printed I44 = 30 μM, Table 5)): 44%

Compound: CCOC(=O)C=Cc1c(C)n(Cc2ccccc2)c2ccccc12 [Ethyl B-(1-benzyl-2-methyl-indol-3-yl)acrylate]
PLC activity class (Table 5) [3]: I
IC50 [4, 6]: 1 µM

Compound: CCOC(=O)C=Cc1cc2ccccc2[nH]1 [Ethyl B-(indol-2-yl)acrylate]
IC50 [1, 5]: 30 µM
PLC activity class (Table 5) [3]: I

Compound: CCOC(=O)C=Cc1c[nH]c2ccccc12 [Ethyl β-(indol-3-yl)acrylate, reference compound]
PLA2 activity class (Table 5) ([2]; at level tested (100 uM)): I
PLC activity class (Table 5) [3]: I
IC50 [4, 6]: 8 µM

Compound: CCOC(=O)C=Cc1cn(Cc2ccccc2)c2ccccc12 [Ethyl-B-(benzylindol-3-yl)acrylate, reference compound]
SALTI activity class (Table 5) ([1]; at level tested (initially 30 μM)): I

Compound: O=C(O)C=CC=Cc1cn(Cc2ccccc2)c2ccccc12 [Example 2, 5-(1-Benzylindol-3-yl)-2,4-Pentadienoic Acid]
IC50 [2]: 16 µM
IC50 [4, 7]: 2 µM

Compound: CCOC(=O)C=CC=Cc1cn(Cc2ccccc2)c2ccc(OCc3ccccc3)cc12 [Example 4, Ethyl 5-(1-Benzyl-5-Benzyloxyindol-3-yl)-2,4-Pentadienoate]
inhibition at 30 µM [2, 8]: 37%

Compound: O=C(O)C=CC=Cc1cn(Cc2ccccc2)c2ccc(OCc3ccccc3)cc12 [Example 5, 5-(1-Benzyl-5-Benzyloxyindol-3-yl)-2,4-Pentadienoic Acid]
IC50 [4, 7]: 2 µM

Compound: COc1ccc2c(c1)c(C=CC=CC(=O)O)cn2Cc1ccccc1 [Example 7, 5-(1-Benzyl-5-methoxyindol-3-yl)-2,4-Pentadienoic Acid]
IC50 [1, 9]: 20 µM
inhibition at 30 µM [2, 8]: 42%
IC50 [4, 7]: 6 µM

Compound: CCOC(=O)C=CC=Cc1c[nH]c2ccccc12 [Example 10, Ethyl 5-(indol-3-yl)-2,4-Pentadienoate]
IC50 [1, 9]: 2 µM
IC50 [4, 7]: 12 µM

Compound: OCC=Cc1cn(Cc2ccccc2)c2ccccc12 [Example 13, 1-Benzyl-3-(3-Hydroxy-1-Propen-1-yl)Indole]
IC50 [4, 7]: 7.5 µM

Continued, in another order:

IC50 [4, 7]: 10 µM
Compound: CCOC(=O)C=CC=Cc1cn(Cc2ccccc2)c2ccccc12 [Example 1, Ethyl 5-(1-Benzylindol-3-yl)-2,4-Pentadienoate]

IC50 [4, 7]: 2 µM
Compound: CCOC(=O)c1ccc(NC(=O)C=CC=Cc2cn(Cc3ccccc3)c3ccccc23)cc1 [Example 3, N-(4-Carbethoxyphenyl)-5-(1-benzylindol-3-yl)-2,4-Pentadienamide]

IC50 [4, 7]: 4 µM
Compound: CCOC(=O)C=CC=Cc1cn(Cc2ccccc2)c2ccc(OC)cc12 [Example 6, Ethyl 5-(1-Benzyl-5-Methoxyindol-3-yl)-2,4-Pentadienoate]

IC50 [4, 7]: 15 µM
Compound: CCOC(=O)C=CC=Cc1c(C)n(Cc2ccccc2)c2ccccc12 [Example 11, Ethyl 5-(1-Benzyl-2-methylindol-3yl)-2,4-Pentadienoate]

IC50 [4, 7]: 10 µM
Compound: CCOC(=O)C=CC=Cc1cc2cc(OC)ccc2[nH]1 [Example 16, Ethyl 5-(5-methoxyindol-2-yl)-2,4-Pentadienoate]
inhibition at 30 µM ([1]; Cavia porcellus, at 30 μM, 0.2 μM leukotriene C4-induced contraction, read-out: SALTI, % I at 30 μM): 53%

IC50 [4, 7]: 10 µM
Compound: CCOC(=O)C=CC=Cc1cc2cc(OC)ccc2n1C(=O)c1ccc(Cl)cc1 [Example 17, Ethyl 5-(1-p-chlorobenzoyl-5-methoxyindol-2-yl)-2,4-Pentadienoate]
